A word on the AC50: it is the concentration at which the activity in the assay is half-maximal. Lower therefore signals greater potency.

These results are taken from ChEMBL document CHEMBL5291721, “A preclinical secondary pharmacology resource illuminates target-adverse drug reaction associations of marketed drugs” (Nat Commun, 2023).

Experiment [1] has as its target T1, Muscarinic acetylcholine receptor M2 (Homo sapiens, UniProt P08172).
T1 sequence (P08172 whole entry): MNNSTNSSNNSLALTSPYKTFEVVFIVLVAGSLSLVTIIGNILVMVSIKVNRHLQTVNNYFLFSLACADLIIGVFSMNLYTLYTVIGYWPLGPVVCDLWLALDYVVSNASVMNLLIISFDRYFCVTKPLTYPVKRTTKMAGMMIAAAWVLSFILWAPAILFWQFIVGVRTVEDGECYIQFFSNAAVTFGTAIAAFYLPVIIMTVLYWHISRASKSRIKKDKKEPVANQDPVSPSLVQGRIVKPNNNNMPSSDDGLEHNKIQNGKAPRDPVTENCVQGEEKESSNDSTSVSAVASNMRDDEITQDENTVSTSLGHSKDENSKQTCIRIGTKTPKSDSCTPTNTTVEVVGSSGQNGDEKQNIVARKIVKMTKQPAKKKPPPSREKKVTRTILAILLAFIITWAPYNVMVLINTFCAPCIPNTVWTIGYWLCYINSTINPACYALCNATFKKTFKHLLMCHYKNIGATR

Experiment [2] deals with T2, Thromboxane A2 receptor (Homo sapiens, UniProt P21731).
T2 sequence (P21731 whole entry): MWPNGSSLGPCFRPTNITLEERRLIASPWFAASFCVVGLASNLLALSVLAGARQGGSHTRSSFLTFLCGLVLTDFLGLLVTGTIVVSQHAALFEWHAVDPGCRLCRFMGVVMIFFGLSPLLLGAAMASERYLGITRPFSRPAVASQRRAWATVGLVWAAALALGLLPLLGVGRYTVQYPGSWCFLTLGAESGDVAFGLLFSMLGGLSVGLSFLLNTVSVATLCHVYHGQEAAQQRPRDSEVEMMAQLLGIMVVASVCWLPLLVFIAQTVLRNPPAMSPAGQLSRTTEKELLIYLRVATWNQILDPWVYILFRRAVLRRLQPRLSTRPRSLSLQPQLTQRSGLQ

Experiment [3] has as its target T3, Progesterone receptor (Homo sapiens, UniProt P06401).
T3 sequence (P06401 whole entry): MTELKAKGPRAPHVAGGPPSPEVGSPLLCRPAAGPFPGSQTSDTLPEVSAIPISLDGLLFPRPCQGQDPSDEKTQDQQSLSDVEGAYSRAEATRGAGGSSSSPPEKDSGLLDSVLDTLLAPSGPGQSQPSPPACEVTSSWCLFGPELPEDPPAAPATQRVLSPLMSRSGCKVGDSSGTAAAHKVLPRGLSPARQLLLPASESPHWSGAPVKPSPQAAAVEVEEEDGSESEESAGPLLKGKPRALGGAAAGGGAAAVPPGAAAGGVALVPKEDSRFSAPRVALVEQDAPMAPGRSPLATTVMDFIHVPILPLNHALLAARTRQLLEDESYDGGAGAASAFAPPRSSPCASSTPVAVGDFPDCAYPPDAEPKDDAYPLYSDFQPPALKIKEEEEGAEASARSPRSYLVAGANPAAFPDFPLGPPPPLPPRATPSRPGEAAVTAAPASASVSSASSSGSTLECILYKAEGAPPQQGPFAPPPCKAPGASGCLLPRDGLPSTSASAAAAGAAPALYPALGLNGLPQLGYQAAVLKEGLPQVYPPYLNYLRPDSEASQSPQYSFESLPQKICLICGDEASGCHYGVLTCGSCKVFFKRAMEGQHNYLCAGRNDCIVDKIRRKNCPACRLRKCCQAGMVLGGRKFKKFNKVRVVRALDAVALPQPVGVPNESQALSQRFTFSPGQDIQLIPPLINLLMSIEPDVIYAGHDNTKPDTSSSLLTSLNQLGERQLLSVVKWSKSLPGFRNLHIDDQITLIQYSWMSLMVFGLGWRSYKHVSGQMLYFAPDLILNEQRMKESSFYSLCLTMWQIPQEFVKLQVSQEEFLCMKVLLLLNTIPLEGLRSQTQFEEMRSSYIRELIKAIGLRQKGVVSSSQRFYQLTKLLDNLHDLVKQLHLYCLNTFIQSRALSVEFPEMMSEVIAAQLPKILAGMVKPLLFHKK
Type of experiment: functional.

The target in experiment [4] is Sodium channel protein type 5 subunit alpha (Homo sapiens, UniProt Q14524). The format is functional, cell-based.
Experiment [5] concerns the target T1, Muscarinic acetylcholine receptor M2. The format is functional, cell-based.
Experiment [6] addresses 5-hydroxytryptamine receptor 2B (Homo sapiens, UniProt P41595).
The target of experiment [7] is T4, Adenosine receptor A3 (Homo sapiens, UniProt P0DMS8).
T4 sequence (P0DMS8 whole entry): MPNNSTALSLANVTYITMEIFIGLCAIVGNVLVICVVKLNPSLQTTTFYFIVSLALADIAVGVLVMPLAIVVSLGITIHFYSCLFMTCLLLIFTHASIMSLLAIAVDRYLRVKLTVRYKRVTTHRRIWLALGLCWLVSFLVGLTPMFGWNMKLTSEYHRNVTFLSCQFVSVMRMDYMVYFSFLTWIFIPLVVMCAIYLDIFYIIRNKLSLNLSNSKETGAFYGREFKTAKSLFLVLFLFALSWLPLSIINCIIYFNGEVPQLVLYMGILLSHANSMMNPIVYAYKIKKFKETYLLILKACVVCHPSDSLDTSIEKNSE

Experiment [8] deals with Motilin receptor (Homo sapiens, UniProt O43193).
For experiment [9], the target named is T3, Progesterone receptor.
The target in experiment [10] is T5, Muscarinic acetylcholine receptor M1 (Homo sapiens, UniProt P11229).
T5 sequence (P11229 whole entry): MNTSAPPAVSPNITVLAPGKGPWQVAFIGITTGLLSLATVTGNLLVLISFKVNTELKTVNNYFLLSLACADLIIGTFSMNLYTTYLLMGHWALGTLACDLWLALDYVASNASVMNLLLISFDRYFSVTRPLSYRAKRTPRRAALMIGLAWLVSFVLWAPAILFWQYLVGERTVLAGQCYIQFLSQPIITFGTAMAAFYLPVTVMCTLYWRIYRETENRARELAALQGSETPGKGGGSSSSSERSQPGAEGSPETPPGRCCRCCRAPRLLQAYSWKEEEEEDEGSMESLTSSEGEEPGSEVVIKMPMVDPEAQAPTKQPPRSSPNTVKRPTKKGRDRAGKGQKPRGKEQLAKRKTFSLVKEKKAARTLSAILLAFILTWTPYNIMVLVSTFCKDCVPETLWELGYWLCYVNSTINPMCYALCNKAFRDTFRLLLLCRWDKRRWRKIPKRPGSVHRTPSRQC
The format is functional.

The target of experiment [11] is 5-hydroxytryptamine receptor 2A (Homo sapiens, UniProt P28223). Type of experiment: functional, cell-based.
The target in experiment [12] is Gamma-aminobutyric acid receptor subunit alpha-1/alpha-2/beta-2/gamma-2 (Homo sapiens, UniProt P14867+P18507+P47869+P47870). Type of experiment: functional, cell-based.
Also: assay procedure not described here.

Sequence of 5-hydroxytryptamine receptor 2A (P28223 whole entry): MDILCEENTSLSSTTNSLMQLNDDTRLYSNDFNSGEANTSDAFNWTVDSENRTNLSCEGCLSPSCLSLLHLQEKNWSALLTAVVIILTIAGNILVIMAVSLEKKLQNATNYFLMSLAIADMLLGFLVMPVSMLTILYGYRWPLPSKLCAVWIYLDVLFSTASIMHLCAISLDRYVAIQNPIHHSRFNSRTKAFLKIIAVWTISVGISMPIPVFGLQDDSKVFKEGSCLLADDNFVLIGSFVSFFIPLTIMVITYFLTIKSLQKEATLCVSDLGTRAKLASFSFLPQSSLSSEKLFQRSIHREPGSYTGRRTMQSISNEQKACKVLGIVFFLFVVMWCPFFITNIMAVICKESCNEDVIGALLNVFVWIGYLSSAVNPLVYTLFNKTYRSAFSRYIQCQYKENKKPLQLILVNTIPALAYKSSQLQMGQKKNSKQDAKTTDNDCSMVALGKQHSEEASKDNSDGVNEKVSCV
Sequence of Motilin receptor (O43193 whole entry): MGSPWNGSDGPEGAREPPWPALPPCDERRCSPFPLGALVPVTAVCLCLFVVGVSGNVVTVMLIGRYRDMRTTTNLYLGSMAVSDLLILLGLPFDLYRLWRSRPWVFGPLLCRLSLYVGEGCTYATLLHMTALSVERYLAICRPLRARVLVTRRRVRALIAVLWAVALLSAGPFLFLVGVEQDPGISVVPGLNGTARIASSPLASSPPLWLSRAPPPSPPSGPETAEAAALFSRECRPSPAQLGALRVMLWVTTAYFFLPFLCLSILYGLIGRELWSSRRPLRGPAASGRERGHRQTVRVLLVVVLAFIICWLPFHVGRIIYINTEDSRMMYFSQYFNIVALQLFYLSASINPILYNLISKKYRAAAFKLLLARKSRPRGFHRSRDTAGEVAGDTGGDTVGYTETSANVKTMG
Sequence of 5-hydroxytryptamine receptor 2B (P41595 whole entry): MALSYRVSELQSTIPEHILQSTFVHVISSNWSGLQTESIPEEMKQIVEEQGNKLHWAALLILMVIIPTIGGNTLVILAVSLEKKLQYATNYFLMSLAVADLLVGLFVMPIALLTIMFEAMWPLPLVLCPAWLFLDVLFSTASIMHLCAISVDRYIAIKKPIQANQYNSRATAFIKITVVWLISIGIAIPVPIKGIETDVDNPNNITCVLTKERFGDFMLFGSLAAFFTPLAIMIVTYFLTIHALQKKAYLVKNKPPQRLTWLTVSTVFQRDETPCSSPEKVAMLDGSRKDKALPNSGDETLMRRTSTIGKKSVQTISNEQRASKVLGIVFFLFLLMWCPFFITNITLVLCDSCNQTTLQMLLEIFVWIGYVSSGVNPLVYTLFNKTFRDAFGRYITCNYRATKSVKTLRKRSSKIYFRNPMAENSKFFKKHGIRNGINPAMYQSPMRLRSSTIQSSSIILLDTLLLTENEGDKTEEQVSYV
Sequence of Sodium channel protein type 5 subunit alpha (Q14524 whole entry): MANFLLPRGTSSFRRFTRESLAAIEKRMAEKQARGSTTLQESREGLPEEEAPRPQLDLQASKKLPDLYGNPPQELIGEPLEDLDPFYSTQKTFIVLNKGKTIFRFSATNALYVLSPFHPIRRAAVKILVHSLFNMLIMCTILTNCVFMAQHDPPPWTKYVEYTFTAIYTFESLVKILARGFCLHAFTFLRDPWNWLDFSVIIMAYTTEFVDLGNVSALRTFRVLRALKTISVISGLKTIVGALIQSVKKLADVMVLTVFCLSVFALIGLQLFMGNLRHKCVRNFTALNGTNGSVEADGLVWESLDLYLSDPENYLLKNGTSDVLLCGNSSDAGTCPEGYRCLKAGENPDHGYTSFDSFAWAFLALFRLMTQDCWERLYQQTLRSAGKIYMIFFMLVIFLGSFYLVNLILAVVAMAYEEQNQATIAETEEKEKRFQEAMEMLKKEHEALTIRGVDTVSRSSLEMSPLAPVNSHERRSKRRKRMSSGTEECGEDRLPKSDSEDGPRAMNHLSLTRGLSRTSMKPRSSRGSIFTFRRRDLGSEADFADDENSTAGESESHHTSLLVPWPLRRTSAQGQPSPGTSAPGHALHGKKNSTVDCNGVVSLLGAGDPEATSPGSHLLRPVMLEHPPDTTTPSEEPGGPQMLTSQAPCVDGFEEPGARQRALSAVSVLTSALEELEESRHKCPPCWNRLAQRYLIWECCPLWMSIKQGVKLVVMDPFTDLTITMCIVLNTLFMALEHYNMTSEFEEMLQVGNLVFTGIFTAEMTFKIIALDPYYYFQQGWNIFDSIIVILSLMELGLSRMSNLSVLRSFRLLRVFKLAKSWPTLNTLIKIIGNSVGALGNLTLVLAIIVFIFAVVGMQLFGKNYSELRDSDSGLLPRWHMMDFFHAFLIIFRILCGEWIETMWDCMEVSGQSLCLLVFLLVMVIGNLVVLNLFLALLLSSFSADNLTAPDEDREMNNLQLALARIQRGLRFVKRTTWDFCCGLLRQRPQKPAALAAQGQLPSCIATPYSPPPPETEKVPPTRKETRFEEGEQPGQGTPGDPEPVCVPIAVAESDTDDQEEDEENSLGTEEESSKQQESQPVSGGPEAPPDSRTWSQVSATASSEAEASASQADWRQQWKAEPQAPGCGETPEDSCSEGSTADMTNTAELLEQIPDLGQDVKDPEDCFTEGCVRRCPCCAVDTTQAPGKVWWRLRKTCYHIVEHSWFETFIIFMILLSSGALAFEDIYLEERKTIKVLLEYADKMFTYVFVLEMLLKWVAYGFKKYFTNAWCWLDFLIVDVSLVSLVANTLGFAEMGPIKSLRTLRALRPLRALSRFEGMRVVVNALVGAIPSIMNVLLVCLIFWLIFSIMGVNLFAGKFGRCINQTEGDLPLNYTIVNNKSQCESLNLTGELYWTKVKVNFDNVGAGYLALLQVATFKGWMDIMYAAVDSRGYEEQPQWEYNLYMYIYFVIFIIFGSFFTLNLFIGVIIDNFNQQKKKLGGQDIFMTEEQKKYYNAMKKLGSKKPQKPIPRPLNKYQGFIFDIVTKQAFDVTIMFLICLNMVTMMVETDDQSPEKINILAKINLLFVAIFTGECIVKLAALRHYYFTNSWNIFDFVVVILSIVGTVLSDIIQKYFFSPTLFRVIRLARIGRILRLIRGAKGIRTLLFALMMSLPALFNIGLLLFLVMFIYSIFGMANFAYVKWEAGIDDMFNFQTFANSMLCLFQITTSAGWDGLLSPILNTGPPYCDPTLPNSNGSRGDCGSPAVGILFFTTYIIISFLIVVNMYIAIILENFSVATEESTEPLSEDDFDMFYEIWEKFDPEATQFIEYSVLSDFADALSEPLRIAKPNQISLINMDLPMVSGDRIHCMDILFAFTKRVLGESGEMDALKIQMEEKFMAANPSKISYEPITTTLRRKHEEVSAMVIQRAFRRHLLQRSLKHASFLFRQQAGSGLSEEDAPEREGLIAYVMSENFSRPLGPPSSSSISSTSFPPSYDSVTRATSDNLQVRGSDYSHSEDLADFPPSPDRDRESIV

On to `CC1(C)S[C@@H]2[C@H](NC(=O)[C@H](N)c3ccc(O)cc3)C(=O)N2[C@H]1C(=O)O` [AMOXICILLIN], for which the AC50 in experiment [1] is more than 10 µM; in experiment [2] it was more than 30 µM; in experiment [3], more than 30 µM; in experiment [4], more than 30 µM; in experiment [5], more than 30 µM; in experiment [6], more than 10 µM. The AC50 in experiment [7], in experiment [8] and in experiment [9] was more than 30 µM throughout.
`Cc1ccc([C@@H]2O[C@H](CO)[C@@H](O)[C@H](O)[C@H]2O)cc1Cc1ccc(-c2ccc(F)cc2)s1` [CANAGLIFLOZIN ANHYDROUS] gave a concentration at half-maximal activity (AC50) in [4] of more than 50 µM.
As for `C=C(C)[C@@H]1CCC(C)=C[C@H]1c1c(O)cc(CCCCC)cc1O` [CANNABIDIOL], the AC50 in experiment [3] was more than 10 µM; in experiment [4], more than 10 µM; in [5], more than 0.3 µM; in experiment [8], 20.5 µM; in experiment [10] it was more than 30 µM; in experiment [11], 4.7 µM.
In the case of `CNCC[C@H](Oc1cccc2ccccc12)c1cccs1` [DULOXETINE], the AC50 in experiment [2] was more than 30 µM; in [4], 5.3 µM; in experiment [5], more than 10 µM; in [7], more than 30 µM; in [8] it was 5.3 µM; in [10], more than 10 µM. In [9], the AC50 is more than 30 µM.
As to `C[C@H]1Oc2cc(cnc2N)-c2c(nn(C)c2C#N)CN(C)C(=O)c2ccc(F)cc21` [LORLATINIB], the AC50 in experiment [3] was more than 30 µM; in [4], more than 30 µM; in [5] it was more than 30 µM; in experiment [7] it was 1.2 µM; in experiment [8], more than 30 µM; in experiment [10], more than 30 µM. The AC50 in [12] and in experiment [11] was more than 30 µM each time.
`CNC[C@H](O)c1cccc(O)c1` [PHENYLEPHRINE]: the AC50 is more than 10 µM in experiment [1]; more than 30 µM in [2]; more than 30 µM in [4]; more than 10 µM in [5]; more than 10 µM in experiment [6]; more than 30 µM in experiment [7]. For the same molecule, the AC50 is more than 10 µM in experiment [8], more than 10 µM in [10], more than 30 µM in [9] and more than 30 µM in experiment [11].
As for `O=C1NC(=O)C(c2ccccc2)(c2ccccc2)N1` [PHENYTOIN], the AC50 is more than 30 µM in experiment [2]; more than 30 µM in [3]; more than 50 µM in experiment [4]; more than 30 µM in experiment [5]; more than 30 µM in [7]; more than 30 µM in experiment [8]. In [9], this molecule registered an AC50 of more than 30 µM.
Take `NC(=O)c1ncn([C@@H]2O[C@H](CO)[C@@H](O)[C@H]2O)n1` [RIBAVIRIN]: the AC50 in experiment [2] was more than 10 µM; in experiment [3], more than 10 µM; in experiment [4] it was more than 50 µM; in experiment [5], more than 10 µM; in experiment [7], more than 10 µM; in experiment [8], more than 10 µM.
On to `O=C(Nc1c(Cl)cncc1Cl)c1ccc(OC(F)F)c(OCC2CC2)c1` [ROFLUMILAST], for which the AC50 in experiment [2] is more than 30 µM; in [4] it was more than 50 µM; in [5], more than 30 µM; in experiment [7] it was more than 30 µM; in experiment [8] it was more than 30 µM; in [10], more than 30 µM. The concentration at half-maximal activity (AC50) in experiment [11] was more than 30 µM.
In the case of `CCCN(CCC)CCc1cccc2c1CC(=O)N2` [ROPINIROLE], the AC50 in experiment [1] was 12.1 µM; in experiment [2] it was more than 30 µM; in [3] it was more than 30 µM; in [5], 23 µM; in experiment [6] it was 27 µM; in experiment [7], more than 30 µM. For the same molecule, the concentration at half-maximal activity (AC50) was more than 30 µM in experiment [8]; more than 30 µM in experiment [10]; more than 30 µM in [12]; more than 30 µM in [9]; 7.3 µM in experiment [11].
On to `CC(C)N(CCCCOCC(=O)NS(C)(=O)=O)c1cnc(-c2ccccc2)c(-c2ccccc2)n1` [SELEXIPAG], for which the AC50 in [2] was 23.9 µM; in [3], more than 30 µM; in experiment [4], 45 µM; in [5] it was more than 30 µM; in experiment [7] it was 7.89 µM; in experiment [8], more than 30 µM. Also, the AC50 is more than 30 µM in experiment [10] and 16 µM in experiment [11].
`NC(=O)NS(=O)(=O)c1ccc(N)cc1` [SULFACARBAMIDE] yielded an AC50 in experiment [4] of more than 50 µM.
Still for that read-out and setting: to `CCCCCCCCNC(C)C(O)c1ccc(SC(C)C)cc1` (configuration not stated) [SULOCTIDIL] belongs 7.7 µM.
